Reference: PMC8151276, “An Integrated Approach toward NanoBRET Tracers for Analysis of GPCR Ligand Engagement” (Molecules, 2021)

How the values were obtained:
ADORA2A = target: T1, ADORA2A (Homo sapiens, UniProt P29274); experiment: NanoBRET screen HiBiT-ADORA2A in HEK293; assay type: binding
T1 construct: purchased Promega (in-house HiBiT-GPCR construct library, NanoBRET)
Method: (§1) Each tracer candidate was screened across the entire library of HiBiT-GPCR constructs using NanoBRET as the detection modality. As depicted in Figure 4A, the specificity of interactions was evaluated through decrease in BRET due to competitive displacement of a bound tracer by excess parental compound. Each tracer was analyzed for binding to each HiBiT-GPCR fusion in the absence and in the presence of competing parental compound. Briefly, HEK293 cells were transfected with HiBiT-GPCR constructs diluted into promoterless DNA to reduce expression and maximize translocation to the cell surface. Each tracer candidate was then screened at concentrations of 1 μM and 0.1 μM across cells expressing these fusions. Cells were treated for 1.5 h with tracer either alone or in the presence of 20 μM competing parental compound (i.e., control). BRET was measured upon addition of purified LgBiT and subsequent complementation with HiBiT genetically fused to a GPCR. The specificity of interactions was assessed through a decrease in BRET signal due to competitive displacement of the bound tracer. To further gauge the robustness of these interactions, the fold response over the control (i.e., BRETtracer/BRETcontrol) was calculated. We chose a 1.5-fold response, which translates to ≥7-fold signal over noise as the minimal threshold required to score an interaction as positive.
(§2) HiBiT-GPCR DNA constructs were diluted in 10 mM Tris pH 8 to a final concentration of 0.01 μg/μL, arrayed in 96-well plates and stored at −20 °C. For transfection, HEK293 cells were suspended in Opti-MEM (without phenol red) supplemented with 2% fetal bovine serum (Seradigm) and 100 units/mL penicillin–streptomycin (Gibco) at a final concentration of 220,000 cells/mL and dispensed into white 96-well plates at 90 μL/well. Subsequent transfections and screens were carried using an Agilent Bravo Automated Liquid Handling Platform. First, the 96-well HiBiT DNA arrays were diluted 25-fold in Opti-MEM (without serum or phenol red) to a final concentration of 0.0004 μg/μL and 20 μL of the diluted DNAs were transferred into new 96-well plates. Next, promoterless carrier DNA (1 μg/μL) was diluted 25-fold (0.04 μg/μL) and then dispensed into the diluted arrays at 20 μL/well. Following brief mixing, Viafect transfection reagent (Promega) diluted 16-fold into Opti-MEM was dispensed into the plates at 40 μL/well. After mixing by pipetting, plates were incubated for 10 min on the pipetting station deck. The DNA-transfection reagent complexes were then added to plates containing cells. To facilitate the screen, 10 μL of DNA-transfection reagent complexes were added in duplicates to the top 4 and bottom 4 rows, resulting in two identical 48-well arrays per plate. Plates with transfected cells were incubated for 18–20 h at 37 °C/5% CO2. A screen of each tracer across the entire library using two different concentrations requires duplicate plates of transfected cells. Depending on the number of tracers being screened, transfections can be scaled up using the same ratios. The next day, for each tracer, four 20× screening solutions in tracer dilution buffer (Promega) were prepared: two duplicates at final concentration of 20 μM and two duplicates at a final concentration of 2 μM. […] The four resulting solutions were diluted 4-fold in Opti-MEM without serum or phenol red to generate 5× solutions (5 µM and 0.5 µM tracer +/− 100 μM competing compound). To screen the library, a BioTek MultiFlo FX liquid dispenser was used to dispense 22.5 µL of tracer solution to the top 4 rows and 22.5 µL tracer + competing compound solution to the 4 bottom rows. Plates were briefly mixed on an orbital shaker and incubated for 1.5 h at room temperature. […] Plates were briefly mixed on an orbital shaker and incubated for 15 min to allow complementation.

ADRA2A = target: T2, ADRA2A (Homo sapiens, UniProt P08913); experiment: NanoBRET screen HiBiT-ADRA2A in HEK293; assay type: binding
T2 construct: purchased Promega (in-house HiBiT-GPCR construct library, NanoBRET)
T2 sequence (P08913 1-465): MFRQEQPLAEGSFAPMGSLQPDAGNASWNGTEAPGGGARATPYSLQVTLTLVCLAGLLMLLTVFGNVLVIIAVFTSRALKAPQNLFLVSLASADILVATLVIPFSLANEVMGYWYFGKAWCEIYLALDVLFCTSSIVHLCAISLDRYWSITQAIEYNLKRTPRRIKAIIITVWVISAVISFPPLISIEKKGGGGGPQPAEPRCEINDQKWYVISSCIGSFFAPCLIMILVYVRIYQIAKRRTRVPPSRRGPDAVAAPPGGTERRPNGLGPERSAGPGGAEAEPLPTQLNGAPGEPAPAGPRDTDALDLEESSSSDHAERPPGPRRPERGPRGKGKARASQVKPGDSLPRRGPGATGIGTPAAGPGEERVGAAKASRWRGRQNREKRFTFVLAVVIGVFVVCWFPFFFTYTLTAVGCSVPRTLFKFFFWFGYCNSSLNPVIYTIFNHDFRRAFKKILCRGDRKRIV
Method: as §1, §2

[1] = tracer at 0.1μM, listed as amitriptyline-b-2-NB590
[2] = tracer at 1μM, listed as amitriptyline-b-2-NB590

T1 sequence (P29274 whole entry): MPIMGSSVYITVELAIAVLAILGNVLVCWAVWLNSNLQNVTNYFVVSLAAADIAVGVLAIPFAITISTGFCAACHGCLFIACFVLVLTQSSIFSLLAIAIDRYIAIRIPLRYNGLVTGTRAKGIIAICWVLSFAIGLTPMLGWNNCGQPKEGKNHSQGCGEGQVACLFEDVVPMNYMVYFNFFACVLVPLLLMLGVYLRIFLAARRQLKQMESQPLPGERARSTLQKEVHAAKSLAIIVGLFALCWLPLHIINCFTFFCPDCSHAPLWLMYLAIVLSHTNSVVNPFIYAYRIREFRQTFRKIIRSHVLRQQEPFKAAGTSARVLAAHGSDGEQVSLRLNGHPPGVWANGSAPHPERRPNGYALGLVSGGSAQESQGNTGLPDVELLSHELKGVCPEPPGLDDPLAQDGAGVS

| Compound | NanoBRET Fold Response (ADORA2A; ADORA2A, tracer 0.1μM) | NanoBRET Fold Response (ADORA2A; ADORA2A, tracer 1μM) | NanoBRET Fold Response (ADRA2A; ADRA2A, tracer 0.1μM) | NanoBRET Fold Response (ADRA2A; ADRA2A, tracer 1μM) | also measured |
| --- | --- | --- | --- | --- | --- |
| CN1CCN(C2=Nc3cc(Cl)ccc3Nc3ccc(CNC(=O)CCOCCOCCOCCOCCNC(=O)CCc4ccc5n4[B-](F)(F)[N+]4=C(c6ccc[nH]6)C=CC4=C5)cc32)CC1 [Clozapine-b-2-NB590] |  |  |  |  | NanoBRET Fold Response (ADORA2A; ADORA2A, 0.1μM tracer): 0.97; NanoBRET Fold Response (ADORA2A; ADORA2A, 1μM tracer): 1.00 |
| CN(C)CCC=C1c2ccccc2CCc2ccc(C(=O)NCCNC(=O)CCOCCOCCOCCOCCNC(=O)CCc3ccc4n3[B-](F)(F)[N+]3=C(c5ccc[nH]5)C=CC3=C4)cc21 [Amitriptyline-b-2-NB590] |  |  |  |  | NanoBRET Fold Response (ADORA2A; [1]): 1.07; NanoBRET Fold Response (ADORA2A; [2]): 1.20; NanoBRET Fold Response (ADRA2A; [1]): 1.11; NanoBRET Fold Response (ADRA2A; [2]): 1.00 |
| CCOC(=O)c1cc(C#N)c(N2CCC(C(=O)NS(=O)(=O)Cc3ccccc3/C=C/C(=O)NCCNC(=O)CCc3ccc4n3[B-](F)(F)[N+]3=C(c5ccc[nH]5)C=CC3=C4)CC2)nc1C [AZD1283-1-NB590] |  |  |  |  | NanoBRET Fold Response (ADORA2A; ADORA2A, 0.1μM): 1.06; NanoBRET Fold Response (ADORA2A; ADORA2A, 1μM): 1.04; NanoBRET Fold Response (ADRA2A; ADRA2A, 0.1μM): 1.04; NanoBRET Fold Response (ADRA2A; ADRA2A, 1μM): 1.13 |
| CC(C)N(CC[C@H](c1ccccc1)c1cc(CCNC(=O)CCOCCOCCOCCOCCNC(=O)CCc2ccc3n2[B-](F)(F)[N+]2=C(c4ccc[nH]4)C=CC2=C3)ccc1O)C(C)C [Tolterodine-2-NB590] | 1.35 | 0.95 | 1.00 | 1.02 |  |
| CC(C)N(CC[C@H](c1ccccc1)c1cc(CCNC(=O)c2ccc(CNC(=O)CCc3ccc4n3[B-](F)(F)[N+]3=C(c5ccc[nH]5)C=CC3=C4)cc2)ccc1O)C(C)C [Tolterodine-BZ-NB590] | 1.00 | 1.01 | 1.08 | 1.07 |  |
| O=C(CCOCCOCCOCCOCCNC(=O)CCc1ccc2n1[B-](F)(F)[N+]1=C(c3ccc[nH]3)C=CC1=C2)NCCCN1CCN(C2=Nc3ccccc3Oc3ccc(Cl)cc32)CC1 [Loxapine-a-2-NB590] | 1.08 | 1.11 | 0.99 | 1.02 |  |
| CN1CCN(C2=Nc3cc(Cl)ccc3N(CC(=O)NCCOCCOCCOCCOCCNC(=O)CCc3ccc4n3[B-](F)(F)[N+]3=C(c5ccc[nH]5)C=CC3=C4)c3ccccc32)CC1 [Clozapine-c-2-NB590] |  |  |  |  | NanoBRET Fold Response (ADORA2A; ADORA2A, 0.1μM tracer): 1.01; NanoBRET Fold Response (ADORA2A; ADORA2A, 1μM tracer): 0.94 |
| CN(C)CCC=C1c2ccccc2CCc2ccc(C(=O)NCCNC(=O)CCOCCOCCOCCOCCNC(=O)CCc3ccc4n3[B-](F)(F)[N+]3=C(c5ccc[nH]5)C=CC3=C4)cc21 [Amitriptyline-a-2-NB590] |  |  |  |  | NanoBRET Fold Response (ADORA2A; tracer at 0.1μM): 1.02; NanoBRET Fold Response (ADORA2A; tracer at 1μM): 1.07; NanoBRET Fold Response (ADRA2A; tracer at 0.1μM): 1.03; NanoBRET Fold Response (ADRA2A; tracer at 1μM): 1.12 |
| Cc1nc2n(c(=O)c1CCN1CCC(c3noc4cc(F)ccc34)CC1)CCCC2OC(=O)NCCOCCOCCOCCOCCNC(=O)CCc1ccc2n1[B-](F)(F)[N+]1=C(c3ccc[nH]3)C=CC1=C2 (stereo not drawn) [Risperidone-2-NB590] | 0.98 | 0.98 | 1.29 | 2.34 |  |
| COc1ccc2[nH]c(-c3ccc(CNC(=O)CCOCCOCCOCCOCCNC(=O)CCc4ccc5n4[B-](F)(F)[N+]4=C(c6ccc[nH]6)C=CC4=C5)cc3)c(CCNC(C)=O)c2n1 [AzomelatoninICO9-2-NB590] |  |  |  |  | NanoBRET Fold Response (ADORA2A; 0.1μM tracer): 1.16; NanoBRET Fold Response (ADORA2A; 1μM tracer): 0.82; NanoBRET Fold Response (ADRA2A; 0.1μM tracer): 1.01; NanoBRET Fold Response (ADRA2A; 1μM tracer): 1.06 |
| COc1ccccc1N1CCN(CCCCN2C(=O)c3ccc(CNC(=O)CCOCCOCCOCCOCCNC(=O)CCc4ccc5n4[B-](F)(F)[N+]4=C(c6ccc[nH]6)C=CC4=C5)cc3C2=O)CC1 [NAN-190-2-NB590] | 1.02 |  | 2.17 | 3.08 |  |
| O=C(CCc1ccc2n1[B-](F)(F)[N+]1=C(c3ccc[nH]3)C=CC1=C2)NCCOCCOCCNC(=O)OCCOCCN1CCN(C2=Nc3ccccc3Sc3ccccc32)CC1 [Quetiapine-a-2-NB590] | 0.99 | 0.91 | 1.10 | 1.22 |  |
| O=C(CCOCCOCCOCCOCCNC(=O)CCc1ccc2n1[B-](F)(F)[N+]1=C(c3ccc[nH]3)C=CC1=C2)NCCCN1CCN(C2=Nc3cc(Cl)ccc3Nc3ccccc32)CC1 [Clozapine-a-2-NB590] |  |  |  |  | NanoBRET Fold Response (ADORA2A; ADORA2A, 0.1μM tracer): 0.95; NanoBRET Fold Response (ADORA2A; ADORA2A, 1μM tracer): 0.89; NanoBRET Fold Response (ADRA2A; ADRA2A, 0.1μM tracer): 1.27; NanoBRET Fold Response (ADRA2A; ADRA2A, 1μM tracer): 1.78 |
| N#CN=C(NCCCOc1cccc(CN2CCCCC2)c1)NCCNC(=O)CCOCCOCCOCCOCCNC(=O)CCc1ccc2n1[B-](F)(F)[N+]1=C(c3ccc[nH]3)C=CC1=C2 [Aminopotentidine-2-NB590] | 1.05 | 0.99 | 1.04 | 1.26 |  |
| O=C(CCc1ccc2n1[B-](F)(F)[N+]1=C(c3ccc[nH]3)C=CC1=C2)NCc1ccc(C(=O)NCCOCCOCCNCC(O)COc2cccc3ccccc23)cc1 (stereo not drawn) [Propranolol-3-NB590] |  |  |  |  | NanoBRET Fold Response (ADORA2A; ADORA2A, 0.1μM): 1.05; NanoBRET Fold Response (ADORA2A; ADORA2A, 1μM): 0.99; NanoBRET Fold Response (ADRA2A; ADRA2A, 0.1μM): 1.04; NanoBRET Fold Response (ADRA2A; ADRA2A, 1μM): 1.06 |
| O=C(CCc1ccc2n1[B-](F)(F)[N+]1=C(c3ccc[nH]3)C=CC1=C2)NCc1ccc(C(=O)NCCOCCC(=O)N[C@@H]2CC[C@@]3(O)[C@H]4Cc5ccc(O)c6c5[C@@]3(CCN4CC3CC3)[C@H]2O6)cc1 [Naltrexone-3-NB590] | 1.08 | 0.58 | 1.12 | 0.92 |  |
| COc1ccccc1N1CCN(CCCCN2C(=O)c3ccc(CNC(=O)CCOCCNC(=O)c4ccc(CNC(=O)CCc5ccc6n5[B-](F)(F)[N+]5=C(c7ccc[nH]7)C=CC5=C6)cc4)cc3C2=O)CC1 [NAN-190-3-NB590] | 1.00 | 0.91 | 2.11 | 2.92 |  |
| Cc1cc2c(s1)Nc1ccccc1N=C2N1CCN(CCCNC(=O)CCOCCOCCOCCOCCNC(=O)CCc2ccc3n2[B-](F)(F)[N+]2=C(c4ccc[nH]4)C=CC2=C3)CC1 [Olanzapine-a-2-NB590] | 0.97 | 0.93 | 1.00 | 1.04 |  |
| N#CN/C(=N\CCNC(=O)c1ccc(N)cc1)NCCCOc1cccc(CN2CCCCC2)c1 [Aminopotentidine (unmodified)] |  |  |  |  | NanoBRET Fold Response (ADRA2A; ADRA2A, other tracers/Aminopotentidine (unmodified), 0.1μM): 1.01; NanoBRET Fold Response (ADRA2A; ADRA2A, other tracers/Aminopotentidine (unmodified), 1μM): 1.67 |
